Four molecules from US12594421B2, “Compositions and methods for increasing cancer cell sensitivity to alternating electric fields” (NOVOCURE GMBH, priority 2020, dated 2026) can be followed below.

The subject of data set [1] is A2780 cells. In kind it is cell-based. The conditions noted are these: for inhibition concentration 25 (IC25): concentration added for 72 h, cell line not stated in b192 (8 nM is the A2780 concentration of b155). The protocol:
(§1) All cell lines were obtained from ATCC: U-87 (human glioma cell lines) and H1299 (human metastatic lung carcinoma), A2780 (ovarian cell line). Cells were cultured in Dulbecco's modified Eagle's medium (Biological Industries) or RPMI (GIBCO) medium supplemented with 5-10% fetal bovine serum and antibiotics.
5,000-50,000 single cells were suspended in 500 μL of media and seeded in the middle of a 22 mm diameter cover slip.
(§2) For induction of 24 hours or longer TTFields application the cover slips were placed in a ceramic dish of Inovitro™ system and allowed to incubate in a conventional tissue culture incubator (37° C., 95% air, 5% CO2) overnight. Once cells adhered to the cover slip, an additional 1.5 mL of media were added to each well and covered in Parafilm (P7793, Sigma Aldrich) to avoid evaporation of media. After an overnight incubation dishes were mounted onto Inovitro™ base plates (Novocure Inc., Haifa, Israel). Tumor Treating electric fields set anywhere from 1-6 V/cm were applied through an Inovitro™ power generator while frequencies ranged from 50-500 kHz. Incubation temperature was 18° C. with a target temperature of 37° C. for the ceramic dishes upon application of the TTFields. Corresponding control experiments were done by placing equivalent cover slips within ceramic dishes into a conventional tissue culture incubator (37° C., 5% CO2) and cells grown in parallel with the TTField-exposed coverslips.
(§3) BGT226, Alpalisib, Pictilisib, BKM120 and Dasatinib were added was added to cells 12-24 hours after seeding for inhibitor mono-treatment and combination treatment to a final concentration of 8 nM, 1 nm, 1 nm, 500 nm and 75 nm respectively in A2780 cells. Control and TTFields samples received same volume of DMSO. Following 72 hours of treatment media was replaced for media with no inhibitor and cells were grown for additional 96 hours. At 168 hours (7 days) cytotoxic assay was performed by GentelMACS cell count, Apoptosis assay and cells were seeded for colony assay (as specified in cell count and Quantification of cell death).
(§4) Cells were detached from Inovitro™ dishes with 0.5 ml Trypsin A for approximately 5 minutes and then supplemented with 0.5 ml culture media. 200 μl of cells were taken to 96 well U-shaped plate to be counted in MACSQuant 10 flow cytometer. Analysis was performed with FlowJo_V10 software and statistics was done by GraphPad Prism 8 software.

The subject of data set [2] is cancer cells. Description: Apoptosis, TTFields plus GSK3β inhibitor 9-ING-41 (FIG. 19). In kind it is cell-based. The conditions noted are these: cell line and concentration not stated. The protocol:
(§5) Cell death was assessed by double staining of cells with FITC-conjugated annexin V (MEBCYTO© 4700 Apoptosis Kit; MBL©) and 7-Aminoactinomycin D (7-AAD; BioLegend©) as per manufacturer's instructions.

The subject of data set [3] is cancer cells. The data set can be described thus: Cell cytotoxicity, TTFields plus GSK3β inhibitor 9-ING-41 (FIG. 19). The conditions noted are these: cell line and concentration not stated. The format is cell-based. The protocol: as §4
Data set [4] concerns A2780 cells. The data set can be described thus: Apoptosis assay (annexin V / 7-AAD), TTFields plus inhibitor. In kind it is cell-based, human. The conditions noted are these: FIG. 6E. The procedure: as §3, §5
The subject of data set [5] is Akt phosphorylation in Ser473. The data set can be described thus: Western blot of Akt phosphorylation (pAkt Ser473) after TTFields with BGT226. In kind it is cell-based, human. The procedure:
Following TTFields application cells were transferred to cold PBS plates for wash.
RIPA lysis buffer (R0278, Sigma-Aldrich), supplemented with a cocktail of protease (Complete Mini, Roche), and phosphatase inhibitors (Halt #78420, Thermo Scientific) was added to plates and cells were scraped with approximately 100 μl supplemented RIPA buffer for 8 Inovitro™ dishes.
Extracts were shaken at 4° C. for a duration of 30 minutes. Samples were centrifuged (20 min, 14,000 rpm, 4° C.). supernatant was transferred and protein concentration was determined by BCA protein assay kit. […]
After electrophoresis, proteins were transferred to 0.2 μm polyvinylidene difluoride membrane (Immuno-Blot PVDF #162-0177, Bio-Rad) and probed with the appropriate primary antibody: GAPDH (SC-32233, Santa Cruz), Vinculin (ab140007, Abcam), Cyclin D1 (2922, Cell Signaling), Rb (9309, Cell Signaling), pRb S807/811 (8516, Cell Signaling), pAkt 5473, (4051, Cell signaling), Akt (2920, Cell signaling)), FAK (3283S, Cell signaling), Phospho-FAK (Tyr397) (3283S, Cell signaling, Src (2109S, cell signaling) and Phospho-Src (Tyr416) (2101S, Cell signaling). followed by horseradish peroxidase-conjugated secondary antibody (goat anti rabbit 7074, Cell Signaling and goat anti mouse 7076, Cell Signaling) and a chemiluminescent substrate (WBLUF0100, Signa-Aldrich). Quantification of bands was done by Image J software. […]
A general note: In western blotting, separated proteins are transferred to a membrane and probed.

Data set [6] has as its system A2780 cells. Description: Colony assay (clonogenicity), TTFields plus inhibitor. The format is cell-based, human. The conditions noted are these: FIG. 18; BGT226 8 nM 72 h, then TTFields alone 96 h. The procedure:
as §3
Colony assay: following cell count 300 cells of each treatment were seeded in duplicates in 6 well dishes with 2 ml media. Once colonies were visible they were washed with PBS. Cells were fixed in −20° C. methanol and stained with 0.5% Crystal violet. Colonies were imaged in camera and counted using Image J (FIJI).

A further data set deals with H1299 cells. Description: Cytotoxicity by cell count, TTFields plus Dasatinib. In kind it is cell-based, human. The conditions noted are these: H1299, TTFields 150 kHz, Dasatinib 0.03 μM (IC25) 72 h, then TTFields alone 96 h. The procedure:
as §1
as §2, with “Corresponding control experiments were done by placing equivalent cover slips within ceramic dishes into a conventional tissue culture incubator (37° C., 5% CO2) and cells grown in parallel with the TTField-exposed coverslips.” left out
Cells were detached from Inovitro™ dishes with 0.5 ml Trypsin A for approximately 5 minutes and then supplemented with 0.5 ml culture media. 200 μl of cells were taken to 96 well U-shaped plate to be counted in MACSQuant 10 flow cytometer. […]

Regarding `CC(=O)O[C@H]1C(=O)[C@@]2(C)[C@H]([C@H](OC(=O)c3ccccc3)[C@]3(O)C[C@H](OC(=O)[C@H](O)[C@@H](NC(=O)c4ccccc4)c4ccccc4)C(C)=C1C3(C)C)[C@]1(OC(C)=O)CO[C@@H]1C[C@@H]2O` [Paclitaxel], the “cytotoxicity of combination with TTFields” value with A2780 cells [1] (FIG. 18, Paclitaxel 2 nM 72 h, then TTFields alone 96 h) is “effective to a lesser extent than that of BGT226”. Besides, in the data set on A2780 cells [1] (FIG. 18), the “inhibition concentration 25 (IC25)” value worked out at 2 nM.

Consider `Cn1cc(C2=C(c3coc4ccc(F)cc34)C(=O)NC2=O)c2cc3c(cc21)OCO3` [9-ING-41], for which the “efficacy of TTFields treatment in apoptosis, combination therapy” value in the data set with cancer cells [2] is recorded as “did not increase efficacy of TTFields treatment”. Besides, in the data set on cancer cells [3], the “efficacy of TTFields treatment in cell cytotoxicity, combination therapy” value is “did not increase efficacy of TTFields treatment”.

For the molecule `COc1ccc(-c2ccc3ncc4c(c3c2)n(-c2ccc(N3CCNCC3)c(C(F)(F)F)c2)c(=O)n4C)cn1` [BGT226], the “live cells (AnnexinV-/7AAD-), inhibitor alone compared to combined treatment” value in the data set on A2780 cells [4] is listed as “more live cells”. Moreover, the “apoptotic assay, combined treatment of TTFields and inhibitor” value with A2780 cells [4] (cell line not stated) is given as “induce apoptosis in reminder of cells”. Besides, the “phosphorylation of Akt in Ser473 following combined treatment of TTFields and BGT226” value in data set [5] (A2780 cells, BGT226 5 nM for 72 h, then media without inhibitor 96 h, lysate at 168 hours) was “decrease in phosphorylation of Akt in Ser473”. Further, the “increase in Akt phosphorylation following TTFields” value in data set [5] (Western blot, FIG. 5A-5B) is “inhibited by BGT226”. The “cell resistance caused by pro-survival signaling by TTFields” value in the data set with A2780 cells [1] (FIG. 6A-6E, cell line not stated) is reported as “inhibited by BGT226”. Besides, the “cell survival, combination of TTFields with BGT226” value in the data set with A2780 cells [1] (FIG. 6C, cell line not stated) is reported as “synergistic effect in cell survival”. Moreover, the “efficacy of combination with TTFields, BGT226 compared with Paclitaxel” value with A2780 cells [1] (FIG. 18, BGT226 8 nM or Paclitaxel 2 nM 72 h, then TTFields alone 96 h) is “more effective than Paclitaxel and TTFields”. Besides, in the data set with A2780 cells [1] (FIG. 18), the “inhibition concentration 25 (IC25)” value is 8 nM. Moreover, the “clonogenicity, combination therapy with TTFields” value in the data set with A2780 cells [6] was “dramatic effect in combination therapy with BGT226 compared to Paclitaxel”.

`Cc1nc(Nc2ncc(C(=O)Nc3c(C)cccc3Cl)s2)cc(N2CCN(CCO)CC2)n1` [Dasatinib]: the “treatment efficacy of TTFields plus Dasatinib, cytotoxic effect” value in the data set on H1299 cells is “increased treatment efficacy relative to TTFields or inhibitor alone in all combination groups”; in the data set on A2780 cells [1] (A2780, TTFields 200 kHz, Dasatinib 0.075 μM (IC25) 72 h, then TTFields alone 96 h), “increased treatment efficacy relative to TTFields or inhibitor alone in all combination groups”.
